Test [1] addresses Potassium voltage-gated channel subfamily KQT member 2 (Rattus norvegicus, UniProt O88943, W236L). The test can be described thus: potentiation of rat KCNQ2 current – cell-based, automated electrophysiology, mechanism study for KCNQ2 potentiator project, dose response (AID 2603). The class given is functional.
The target of test [2] is T1, Calpain-2 catalytic subunit (Sus scrofa, UniProt P43367).
T1 sequence (P43367 whole entry): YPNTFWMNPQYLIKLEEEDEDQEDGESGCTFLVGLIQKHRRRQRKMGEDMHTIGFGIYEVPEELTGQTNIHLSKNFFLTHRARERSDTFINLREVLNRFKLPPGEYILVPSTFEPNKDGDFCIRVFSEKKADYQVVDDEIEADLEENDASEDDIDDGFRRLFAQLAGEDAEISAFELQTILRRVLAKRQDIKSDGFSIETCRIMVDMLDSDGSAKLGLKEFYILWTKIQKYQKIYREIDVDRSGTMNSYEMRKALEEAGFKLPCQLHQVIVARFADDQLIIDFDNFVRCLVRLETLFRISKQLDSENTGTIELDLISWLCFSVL
In words: m-calpain protease blockers, concentration series – biochemical, fluorogenic peptide substrate, dose response (AID 1420). The class given is functional.

The target of test [3] is T2, Estrogen receptor beta (Homo sapiens, UniProt Q92731).
T2 sequence (Q92731 whole entry): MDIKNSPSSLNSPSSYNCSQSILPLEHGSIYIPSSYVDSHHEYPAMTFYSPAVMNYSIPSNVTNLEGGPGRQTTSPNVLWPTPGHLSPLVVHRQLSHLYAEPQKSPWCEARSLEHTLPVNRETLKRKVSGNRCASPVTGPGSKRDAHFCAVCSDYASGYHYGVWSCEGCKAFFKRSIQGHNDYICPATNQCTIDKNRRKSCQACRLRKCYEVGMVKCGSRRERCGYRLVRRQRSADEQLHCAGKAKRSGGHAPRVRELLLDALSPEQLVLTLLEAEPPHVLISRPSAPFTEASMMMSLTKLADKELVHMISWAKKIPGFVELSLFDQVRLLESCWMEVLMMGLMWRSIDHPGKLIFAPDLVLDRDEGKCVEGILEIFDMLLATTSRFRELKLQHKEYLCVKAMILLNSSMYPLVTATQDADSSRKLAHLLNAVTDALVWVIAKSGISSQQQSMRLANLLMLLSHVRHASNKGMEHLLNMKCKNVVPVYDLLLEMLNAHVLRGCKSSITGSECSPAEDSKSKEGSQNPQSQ
For test [4], the target named is T2, Estrogen receptor beta. The test can be described thus: blockers of SRC-3 recruitment to ERβ – biochemical, ELISA, streptavidin-HRP readout, orthogonal assay, confirmation (AID 1060). In general terms: An ELISA detects its analyte on a solid surface through an enzyme-linked reagent.
Test [5] has as its target G-protein coupled receptor 55 (Homo sapiens, UniProt Q9Y2T6). In words: inhibition of LPI-stimulated GPR55 beta-arrestin translocation – imaging, U2OS, beta-arrestin-GFP, LPI agonist, primary screen (AID 2013).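 Note: antagonist potency measured as reduced agonist-driven arrestin aggregation.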 The class given is functional.
A short description of test [6]: HPDE-C7 pancreatic duct cell viability loss – fluorescence, HTS (AID 430). The class given is functional, cell-based. To be noted: Homo sapiens.
Test [7] can be described thus: viability loss of HPDE-C7K cells – cell-based, fluorescence, HTS, primary screen (AID 431). Format: functional. To be noted: Homo sapiens.
Test [8] in a line: viability of PTEN-deleted HCT116 cells – cell-based, HCT116 PTEN knockout, dose response (AID 1047).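 Note: HCT116 colon tumor cells with PTEN knocked out; cells exposed to compound for 60 hours before readout; potency for loss of cell viability measured by luminescence.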 Format: functional.
Test [9] can be described thus: viability of HCT116 lacking mutant beta-catenin – cell-based, human colon tumor, dose response (AID 1045).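 Note: HCT116 colon tumor cells with beta catenin knocked out; cells exposed to compound for 60 hours.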 Format: functional.
The nature of test [10]: blockers of HIV-1 envelope-mediated cell-cell fusion – cherry-pick, dose response (AID 652057). The class given is functional, cell-based.
A short description of test [11]: blockers of HIV-1 ZM109 envelope-driven cell-cell fusion – HeLa effector, CEM target cells, luciferase, cherry-pick, dose response (AID 652058).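 Note: luciferase signal from HIV-1 Env mediated cell-cell fusion of effector and target cells.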 Format: functional, cell-based.
A short description of test [12]: off-target signal loss in HeLa-CEM21 co-culture – HeLa F-luc CTL cells, cherry-picked, counter-screen for HIV-1 Env fusion inhibitor project, dose response (AID 652040).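 Note: potency for signal decrease marking cytotoxic or nonspecific inhibition.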 Format: functional, cell-based.
Test [13] can be described thus: HIV-1 AD8 envelope cell-cell fusion blockers – cherry-pick, dose response (AID 652062).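 Note: luciferase signal from cell-cell fusion driven by HIV-1 clade B AD8 Env; potency is for inhibitors of fusion seen as a drop in luminescence.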 Format: functional, cell-based.
The target of the next test is T3, Leucine aminopeptidase (Plasmodium falciparum 3D7, UniProt Q8IL11).
T3 sequence (Q8IL11 whole entry): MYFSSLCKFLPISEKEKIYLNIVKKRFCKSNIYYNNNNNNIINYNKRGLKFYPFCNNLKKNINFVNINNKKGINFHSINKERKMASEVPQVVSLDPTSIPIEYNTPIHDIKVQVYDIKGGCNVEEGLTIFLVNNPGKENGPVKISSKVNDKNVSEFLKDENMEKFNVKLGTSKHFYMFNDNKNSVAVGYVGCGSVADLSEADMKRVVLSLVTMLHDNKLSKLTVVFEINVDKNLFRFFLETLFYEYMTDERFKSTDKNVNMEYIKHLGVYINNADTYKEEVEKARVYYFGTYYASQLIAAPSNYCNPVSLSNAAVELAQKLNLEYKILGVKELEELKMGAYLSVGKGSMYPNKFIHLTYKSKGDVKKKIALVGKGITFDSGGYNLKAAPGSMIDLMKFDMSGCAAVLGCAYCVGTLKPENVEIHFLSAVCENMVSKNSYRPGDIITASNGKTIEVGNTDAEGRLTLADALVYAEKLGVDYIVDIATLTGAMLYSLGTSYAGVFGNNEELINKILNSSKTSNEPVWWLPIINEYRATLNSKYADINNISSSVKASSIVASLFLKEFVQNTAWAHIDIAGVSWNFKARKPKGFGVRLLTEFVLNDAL
In words: P. falciparum M17LAP inhibitors, primary screen, biochemical, fluorogenic H-Leu-NHMec substrate, 1536-well (AID 1619). The class given is functional.

Another test addresses Aspartyl aminopeptidase (Plasmodium falciparum 3D7, UniProt Q8I2J3). In words: Counterscreen for inhibitors of M1 and M17 aminopeptidases: QFRET-based biochemical high throughput dose response assay for inhibitors of the Plasmodium falciparum M18 Aspartyl Aminopeptidase (PFM18AAP). [Related PubChem assays: 1619 (Screening assay (M17LAP inhibitors).), 1445 (Screening assay (M1AAP inhibitors).)]. A general note: Counterscreens check selectivity or assay interference.

The next test concerns the target Procathepsin L (Homo sapiens, UniProt P07711). The test can be described thus: CTSL1 protease inhibition – biochemical, QFRET, 1536-well, counter-screen for M1/M17 aminopeptidase inhibitor project, dose response (AID 2214).
Test [14] addresses T4, Replicative DNA helicase DnaB (Mycobacterium tuberculosis, UniProt P9WMR3).
T4 sequence (P9WMR3 whole entry): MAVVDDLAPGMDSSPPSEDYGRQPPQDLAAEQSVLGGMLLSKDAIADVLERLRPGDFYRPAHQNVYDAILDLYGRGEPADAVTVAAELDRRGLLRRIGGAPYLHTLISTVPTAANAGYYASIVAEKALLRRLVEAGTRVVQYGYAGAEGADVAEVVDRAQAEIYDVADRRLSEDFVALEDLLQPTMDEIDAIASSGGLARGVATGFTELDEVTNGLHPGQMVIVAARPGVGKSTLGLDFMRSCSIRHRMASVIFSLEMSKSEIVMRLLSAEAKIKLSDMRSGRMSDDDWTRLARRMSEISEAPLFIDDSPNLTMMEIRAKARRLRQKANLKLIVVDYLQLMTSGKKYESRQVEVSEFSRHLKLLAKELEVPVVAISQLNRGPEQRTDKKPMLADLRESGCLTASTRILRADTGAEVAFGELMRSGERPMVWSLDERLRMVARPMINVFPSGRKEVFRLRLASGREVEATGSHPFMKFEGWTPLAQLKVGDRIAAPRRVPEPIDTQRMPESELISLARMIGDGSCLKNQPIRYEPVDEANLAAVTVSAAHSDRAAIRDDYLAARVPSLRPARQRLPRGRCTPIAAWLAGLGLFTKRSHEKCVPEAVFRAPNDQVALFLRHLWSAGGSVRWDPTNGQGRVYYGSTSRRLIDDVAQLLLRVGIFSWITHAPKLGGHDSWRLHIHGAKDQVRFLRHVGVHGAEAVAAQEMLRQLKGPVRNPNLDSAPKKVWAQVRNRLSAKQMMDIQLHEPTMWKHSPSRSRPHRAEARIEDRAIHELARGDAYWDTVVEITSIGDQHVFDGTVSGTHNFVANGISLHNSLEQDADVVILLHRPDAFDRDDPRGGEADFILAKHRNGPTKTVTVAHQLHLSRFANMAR
The test can be described thus: DnaB intein splicing inhibitors, dose response, biochemical, cell-free fluorescence (AID 449749). Format: functional.

A further test deals with T5, Protein RecA (Mycobacterium tuberculosis, UniProt P9WHJ3).
T5 sequence (P9WHJ3 whole entry): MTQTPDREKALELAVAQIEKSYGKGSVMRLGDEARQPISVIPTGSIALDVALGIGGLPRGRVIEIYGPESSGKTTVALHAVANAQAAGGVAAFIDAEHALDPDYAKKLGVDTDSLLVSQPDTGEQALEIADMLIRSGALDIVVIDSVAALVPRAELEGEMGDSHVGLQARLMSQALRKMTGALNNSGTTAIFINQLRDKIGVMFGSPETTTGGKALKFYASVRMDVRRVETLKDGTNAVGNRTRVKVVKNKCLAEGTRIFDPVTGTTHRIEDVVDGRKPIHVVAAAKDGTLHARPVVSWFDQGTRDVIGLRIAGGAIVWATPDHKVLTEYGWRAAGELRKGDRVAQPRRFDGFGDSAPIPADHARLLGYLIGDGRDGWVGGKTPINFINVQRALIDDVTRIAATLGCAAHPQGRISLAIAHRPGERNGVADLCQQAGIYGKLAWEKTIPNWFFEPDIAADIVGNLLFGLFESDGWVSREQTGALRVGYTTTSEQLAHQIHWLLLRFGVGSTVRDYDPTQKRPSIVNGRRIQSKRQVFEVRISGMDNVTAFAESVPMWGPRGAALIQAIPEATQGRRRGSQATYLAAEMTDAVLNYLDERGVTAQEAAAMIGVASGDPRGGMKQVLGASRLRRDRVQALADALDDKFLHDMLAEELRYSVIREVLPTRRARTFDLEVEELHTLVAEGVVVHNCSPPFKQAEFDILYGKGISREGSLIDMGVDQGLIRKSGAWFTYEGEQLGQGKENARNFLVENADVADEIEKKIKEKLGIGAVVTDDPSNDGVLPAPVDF
In words: Fluorescence Cell-Free Homogeneous Dose Retest to Identify Inhibitors of RecA-Intein Splicing Activity. [Related pubchem assays (depositor defined):AID2097, AID2223, AID489010, AID492950]. The class given is functional.

The next test addresses Large T antigen (Simian virus 40, UniProt P03070). The class given is functional, Betapolyomavirus macacae.
Test [15] has as its target Protein-tyrosine kinase 2-beta (Homo sapiens, UniProt Q14289).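 Note: potency of inhibitors of PYK2 kinase phosphorylation of poly-GT substrate.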
The target in test [16] is Neuropeptides B/W receptor type 1 (Homo sapiens, UniProt P48145). The test can be described thus: Fluorescence-based dose response cell-based high throughput screening assay to identify antagonists of the G-protein coupled receptor 7 (GPR7). [Related pubchem assays: 1952 (Screening assay (GPR7 antagonists).), 1880 (Summary AID.)]. Format: functional.
Chain of Neuropeptides B/W receptor type 1 (P48145 whole entry): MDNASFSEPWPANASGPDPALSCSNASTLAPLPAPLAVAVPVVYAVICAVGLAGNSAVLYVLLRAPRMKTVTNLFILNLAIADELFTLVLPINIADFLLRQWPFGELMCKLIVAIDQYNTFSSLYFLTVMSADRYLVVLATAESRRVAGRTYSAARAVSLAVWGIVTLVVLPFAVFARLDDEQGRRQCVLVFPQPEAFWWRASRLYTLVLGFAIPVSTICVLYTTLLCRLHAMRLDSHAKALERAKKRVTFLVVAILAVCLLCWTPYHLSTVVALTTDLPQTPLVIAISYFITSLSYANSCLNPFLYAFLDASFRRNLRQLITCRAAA
The target in test [17] is T6, Neuropeptide Y receptor type 2 (Homo sapiens, UniProt P49146).
T6 sequence (P49146 whole entry): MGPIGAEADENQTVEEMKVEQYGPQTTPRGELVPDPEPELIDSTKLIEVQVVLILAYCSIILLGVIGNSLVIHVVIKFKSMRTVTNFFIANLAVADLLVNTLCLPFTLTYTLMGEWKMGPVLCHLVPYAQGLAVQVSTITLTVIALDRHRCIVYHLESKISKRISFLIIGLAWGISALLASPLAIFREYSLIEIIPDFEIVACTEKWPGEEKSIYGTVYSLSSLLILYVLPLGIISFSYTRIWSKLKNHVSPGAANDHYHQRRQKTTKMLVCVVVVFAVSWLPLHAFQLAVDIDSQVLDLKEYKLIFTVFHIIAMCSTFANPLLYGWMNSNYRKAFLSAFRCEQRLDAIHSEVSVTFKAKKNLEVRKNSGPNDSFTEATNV
The test can be described thus: IC50 for human NPY-Y2 blockade – cell-based, counter-screen for NPY-Y1 antagonist project, dose response (AID 1278). The class given is functional.

Test [18] addresses Melanin-concentrating hormone receptor 1 (Homo sapiens, UniProt Q99705). The test can be described thus: Fluorescence-based counterscreen for antagonists of the G-protein coupled receptor 7 (GPR7): cell-based high throughput dose response assay to identify antagonists of the melanin-concentrating hormone receptor 1 (MCHR1). The class given is functional.
Test [19] has as its target T7, Neuropeptide Y receptor type 1 (Homo sapiens, UniProt P25929).
T7 sequence (P25929 whole entry): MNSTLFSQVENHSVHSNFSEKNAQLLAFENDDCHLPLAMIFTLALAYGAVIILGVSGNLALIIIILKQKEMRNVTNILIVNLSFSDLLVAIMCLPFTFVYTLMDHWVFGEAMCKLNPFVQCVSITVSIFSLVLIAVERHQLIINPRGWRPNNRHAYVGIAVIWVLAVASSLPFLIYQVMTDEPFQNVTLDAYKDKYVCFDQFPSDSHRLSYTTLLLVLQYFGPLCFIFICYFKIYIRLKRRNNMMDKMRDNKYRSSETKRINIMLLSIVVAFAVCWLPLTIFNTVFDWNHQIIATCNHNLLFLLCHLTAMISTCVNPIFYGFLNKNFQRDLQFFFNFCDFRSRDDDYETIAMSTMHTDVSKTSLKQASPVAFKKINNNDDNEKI
The test can be described thus: IC50 of human NPY-Y1 blockers – cell-based, dose response (AID 1277). Format: functional.

Activity calls are given as the source filed them. Some results are limits rather than exact numbers.

Chain of Potassium voltage-gated channel subfamily KQT member 2 (O88943 whole entry W236L): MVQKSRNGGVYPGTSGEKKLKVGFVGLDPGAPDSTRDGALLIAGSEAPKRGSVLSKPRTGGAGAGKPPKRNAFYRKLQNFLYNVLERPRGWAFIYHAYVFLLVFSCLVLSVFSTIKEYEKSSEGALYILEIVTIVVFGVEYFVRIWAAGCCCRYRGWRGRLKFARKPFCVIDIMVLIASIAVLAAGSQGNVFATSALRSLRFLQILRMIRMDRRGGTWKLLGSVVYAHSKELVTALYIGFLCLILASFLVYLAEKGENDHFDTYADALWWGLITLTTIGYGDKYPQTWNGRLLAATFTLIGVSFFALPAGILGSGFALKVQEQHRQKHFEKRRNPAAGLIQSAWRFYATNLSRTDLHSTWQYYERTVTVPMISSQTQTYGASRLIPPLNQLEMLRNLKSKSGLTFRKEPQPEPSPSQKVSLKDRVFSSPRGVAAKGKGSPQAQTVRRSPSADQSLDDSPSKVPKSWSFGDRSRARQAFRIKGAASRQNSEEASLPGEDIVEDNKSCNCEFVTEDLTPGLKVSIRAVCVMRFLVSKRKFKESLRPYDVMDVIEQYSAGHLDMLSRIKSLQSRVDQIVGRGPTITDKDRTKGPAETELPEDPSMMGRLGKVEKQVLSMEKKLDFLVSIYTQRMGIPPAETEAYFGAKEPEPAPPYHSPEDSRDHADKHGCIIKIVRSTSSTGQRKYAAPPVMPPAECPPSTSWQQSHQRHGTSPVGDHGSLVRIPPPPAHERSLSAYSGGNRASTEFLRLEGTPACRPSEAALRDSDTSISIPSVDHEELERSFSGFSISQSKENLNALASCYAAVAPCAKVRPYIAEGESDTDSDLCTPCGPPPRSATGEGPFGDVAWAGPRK
Chain of Aspartyl aminopeptidase (Q8I2J3 whole entry): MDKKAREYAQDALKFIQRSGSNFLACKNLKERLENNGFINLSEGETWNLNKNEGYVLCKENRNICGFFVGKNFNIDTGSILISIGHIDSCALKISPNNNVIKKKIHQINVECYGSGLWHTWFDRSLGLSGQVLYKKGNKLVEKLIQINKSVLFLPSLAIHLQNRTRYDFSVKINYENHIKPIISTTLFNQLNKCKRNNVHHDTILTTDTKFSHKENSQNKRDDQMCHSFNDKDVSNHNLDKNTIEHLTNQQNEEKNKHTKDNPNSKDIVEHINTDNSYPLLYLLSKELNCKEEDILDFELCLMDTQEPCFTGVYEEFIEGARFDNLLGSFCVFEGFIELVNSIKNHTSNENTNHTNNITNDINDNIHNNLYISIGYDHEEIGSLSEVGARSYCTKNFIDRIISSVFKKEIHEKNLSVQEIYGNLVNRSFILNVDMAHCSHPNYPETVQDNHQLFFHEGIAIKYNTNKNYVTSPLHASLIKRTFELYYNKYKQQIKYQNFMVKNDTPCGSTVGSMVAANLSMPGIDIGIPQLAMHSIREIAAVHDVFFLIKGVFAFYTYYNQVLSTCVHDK
Chain of Protein-tyrosine kinase 2-beta (Q14289 whole entry): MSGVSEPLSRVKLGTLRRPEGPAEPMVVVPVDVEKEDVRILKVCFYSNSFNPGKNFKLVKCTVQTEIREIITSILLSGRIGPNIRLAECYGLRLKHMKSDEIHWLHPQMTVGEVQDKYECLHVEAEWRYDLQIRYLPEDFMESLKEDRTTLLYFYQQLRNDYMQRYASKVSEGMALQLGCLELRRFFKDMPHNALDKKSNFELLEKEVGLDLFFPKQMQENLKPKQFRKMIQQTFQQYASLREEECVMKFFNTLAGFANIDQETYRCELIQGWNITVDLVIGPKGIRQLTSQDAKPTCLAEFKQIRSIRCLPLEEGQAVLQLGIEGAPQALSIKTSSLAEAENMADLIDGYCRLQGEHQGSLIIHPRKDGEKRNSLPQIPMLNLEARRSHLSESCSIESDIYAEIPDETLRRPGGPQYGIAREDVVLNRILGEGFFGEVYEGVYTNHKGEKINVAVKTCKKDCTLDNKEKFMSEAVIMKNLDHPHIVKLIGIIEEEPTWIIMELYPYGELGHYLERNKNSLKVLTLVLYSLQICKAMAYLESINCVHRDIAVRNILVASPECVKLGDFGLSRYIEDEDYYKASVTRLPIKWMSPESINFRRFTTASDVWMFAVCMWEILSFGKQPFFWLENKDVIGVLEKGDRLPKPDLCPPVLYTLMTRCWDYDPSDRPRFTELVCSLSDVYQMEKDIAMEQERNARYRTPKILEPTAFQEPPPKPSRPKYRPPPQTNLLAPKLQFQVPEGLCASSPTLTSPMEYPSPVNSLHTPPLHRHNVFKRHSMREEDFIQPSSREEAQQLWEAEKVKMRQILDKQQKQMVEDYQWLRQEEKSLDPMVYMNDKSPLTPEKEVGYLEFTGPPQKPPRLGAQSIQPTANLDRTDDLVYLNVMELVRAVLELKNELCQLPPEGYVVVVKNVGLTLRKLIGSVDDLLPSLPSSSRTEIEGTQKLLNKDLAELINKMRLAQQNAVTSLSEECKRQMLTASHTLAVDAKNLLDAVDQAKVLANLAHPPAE
Chain of Melanin-concentrating hormone receptor 1 (Q99705 whole entry): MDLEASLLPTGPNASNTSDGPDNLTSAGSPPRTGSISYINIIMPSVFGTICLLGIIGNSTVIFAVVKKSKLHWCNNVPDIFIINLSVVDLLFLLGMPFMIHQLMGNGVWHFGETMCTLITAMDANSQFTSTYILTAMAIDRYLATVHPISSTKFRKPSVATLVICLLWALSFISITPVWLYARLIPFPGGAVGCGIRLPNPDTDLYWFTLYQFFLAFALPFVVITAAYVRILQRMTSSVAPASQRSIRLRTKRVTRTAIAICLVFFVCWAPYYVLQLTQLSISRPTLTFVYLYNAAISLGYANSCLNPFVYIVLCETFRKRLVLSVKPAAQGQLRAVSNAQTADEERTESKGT
Chain of Procathepsin L (P07711 whole entry): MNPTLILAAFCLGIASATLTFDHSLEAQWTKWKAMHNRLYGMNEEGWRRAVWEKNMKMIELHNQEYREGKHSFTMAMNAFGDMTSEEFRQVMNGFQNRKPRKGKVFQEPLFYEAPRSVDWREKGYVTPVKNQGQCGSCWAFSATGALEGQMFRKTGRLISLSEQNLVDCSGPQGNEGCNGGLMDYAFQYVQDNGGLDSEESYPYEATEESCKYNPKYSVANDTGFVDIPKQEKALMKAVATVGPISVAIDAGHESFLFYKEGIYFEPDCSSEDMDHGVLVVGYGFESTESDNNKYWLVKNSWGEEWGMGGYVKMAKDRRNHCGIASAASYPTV
Chain of G-protein coupled receptor 55 (Q9Y2T6 whole entry): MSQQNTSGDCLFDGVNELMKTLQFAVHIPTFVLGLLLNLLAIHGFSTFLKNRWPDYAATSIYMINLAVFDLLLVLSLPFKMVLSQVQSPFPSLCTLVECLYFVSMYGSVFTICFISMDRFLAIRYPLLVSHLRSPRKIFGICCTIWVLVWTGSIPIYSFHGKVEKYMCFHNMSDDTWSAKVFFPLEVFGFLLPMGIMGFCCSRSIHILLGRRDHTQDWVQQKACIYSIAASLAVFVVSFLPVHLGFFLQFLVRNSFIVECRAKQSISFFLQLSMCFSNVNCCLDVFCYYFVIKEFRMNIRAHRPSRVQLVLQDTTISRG
Chain of Large T antigen (P03070 whole entry): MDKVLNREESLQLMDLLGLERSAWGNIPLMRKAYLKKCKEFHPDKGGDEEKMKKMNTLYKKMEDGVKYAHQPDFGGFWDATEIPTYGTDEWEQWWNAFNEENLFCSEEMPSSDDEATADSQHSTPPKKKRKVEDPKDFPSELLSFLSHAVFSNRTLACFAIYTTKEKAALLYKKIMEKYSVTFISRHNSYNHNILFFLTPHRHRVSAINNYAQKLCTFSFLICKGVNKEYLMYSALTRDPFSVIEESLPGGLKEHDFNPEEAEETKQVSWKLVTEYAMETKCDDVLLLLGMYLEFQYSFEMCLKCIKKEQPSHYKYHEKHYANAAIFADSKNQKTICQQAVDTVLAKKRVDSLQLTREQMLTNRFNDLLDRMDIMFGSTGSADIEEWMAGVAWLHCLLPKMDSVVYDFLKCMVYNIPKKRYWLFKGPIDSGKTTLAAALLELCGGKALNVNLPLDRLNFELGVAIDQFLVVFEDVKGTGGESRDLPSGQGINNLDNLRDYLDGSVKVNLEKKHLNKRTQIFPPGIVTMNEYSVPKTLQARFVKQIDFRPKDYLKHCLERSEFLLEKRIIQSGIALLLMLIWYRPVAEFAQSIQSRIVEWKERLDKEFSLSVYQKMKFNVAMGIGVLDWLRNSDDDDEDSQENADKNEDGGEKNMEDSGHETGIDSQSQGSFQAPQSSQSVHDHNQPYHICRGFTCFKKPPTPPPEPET

Broadly, the EC50 is the midpoint of the concentration-response curve. In general, IC50 refers to the concentration at which inhibition is half-maximal. With `CCCCn1c(-c2csc(C(C)C)c2)n[nH]c1=S`, the half-maximal effective concentration (EC50) in test [1] is 308 µM (active). Besides, the half-maximal inhibitory concentration (IC50) in [2] is > 50 µM (not active).

Take `CC1CCCCN1CC(=O)Nc1sc2c(c1C#N)CCC2` (centres undefined): the half-maximal inhibitory concentration (IC50) at Estrogen receptor beta [3] and against Estrogen receptor beta [4] was > 50 µM (not active) in each case.

Broadly, the AC50 is the concentration at which the activity in the assay is half-maximal. `COc1ccc(CCN2C(=O)c3[nH]nc(-c4ccccc4O)c3C2c2ccc(C)cc2)cc1OC` (centres undefined): the half-inhibitory concentration (IC50) in [5] was 2.9 µM (active). The EC50 was 8.11 µM (active) in test [6], 9.9 µM (active) in test [7], 21.1 µM (active) in test [8] and 21.6 µM (active) in [9]. Moreover, the AC50 in [10] is 2.11 µM (active); in [11], 2.58 µM (active); in [12], 3.34 µM (active); in test [13], 6.57 µM (active).

`O=[N+]([O-])c1cccc(-c2cc(O)n[nH]2)c1`: the IC50 on Leucine aminopeptidase was 6.99 µM (active); on Aspartyl aminopeptidase, > 73.5 µM (not active); against Procathepsin L, > 59.6 µM (not active). For the same molecule, the AC50 in test [14] was 7.14 µM (active). For the same molecule, on Protein RecA, the EC50 was 2.57 µM (active).

As for `CCc1ccc2nc3n[nH]c(N)c3cc2c1`, the half-maximal inhibitory concentration (IC50) at Large T antigen is 13.5 µM (active); in test [15], 24.9 µM (not active).

As to `O=C(NC1CCCCC1)C(c1ccncc1)N(Cc1ccc2c(c1)OCO2)C(=O)c1cnsn1` (centres undefined), the half-maximal inhibitory concentration (IC50) in test [16] is recorded as > 43.8 µM (not active); in [17], > 35 µM (not active); in [18], > 43.8 µM (not active); in [19], 32.2 µM (not active).

Values taken from ChEMBL document CHEMBL1201862, “PubChem BioAssay data set” (2004).
